# Source: the CheMixHub viscosity set
# ± gives the uncertainty stated by the source.
# Test: xn = mol fraction of the nth substance listed
compound,measurement,setting,value
CCOCC + CCCCO,viscosity,"303.16 K, 101 kPa, x1 = 0.09",1.958 ± 0.47 mPa·s
same,viscosity,"303.16 K, 101 kPa, x1 = 0.17",1.512 ± 0.37 mPa·s
same,viscosity,"303.16 K, 101 kPa, x1 = 0.27",0.9582 ± 0.25 mPa·s
same,viscosity,"303.16 K, 101 kPa, x1 = 0.4",0.8084 ± 0.21 mPa·s
same,viscosity,"303.16 K, 101 kPa, x1 = 0.51",0.6978 ± 0.19 mPa·s
same,viscosity,"303.16 K, 101 kPa, x1 = 0.6",0.5936 ± 0.16 mPa·s
same,viscosity,"303.16 K, 101 kPa, x1 = 0.67",0.4746 ± 0.14 mPa·s
same,viscosity,"303.16 K, 101 kPa, x1 = 0.74",0.3798 ± 0.12 mPa·s
same,viscosity,"303.16 K, 101 kPa, x1 = 0.81",0.291 ± 0.097 mPa·s
CC(=O)CC(C)C + CCCCCCO,viscosity,"293.15 K, 100 kPa, x1 = 0.0851",3.74 ± 0.3 mPa·s
same,viscosity,"293.15 K, 100 kPa, x1 = 0.1723",2.71 ± 0.22 mPa·s
same,viscosity,"293.15 K, 100 kPa, x1 = 0.2541",2 ± 0.16 mPa·s
same,viscosity,"293.15 K, 100 kPa, x1 = 0.3619",1.37 ± 0.11 mPa·s
same,viscosity,"293.15 K, 100 kPa, x1 = 0.4246",1.12 ± 0.09 mPa·s
same,viscosity,"293.15 K, 100 kPa, x1 = 0.5566",0.78 ± 0.06 mPa·s
same,viscosity,"293.15 K, 100 kPa, x1 = 0.6612",0.65 ± 0.05 mPa·s
same,viscosity,"293.15 K, 100 kPa, x1 = 0.7441",0.6 ± 0.05 mPa·s
same,viscosity,"293.15 K, 100 kPa, x1 = 0.8559",0.56 ± 0.05 mPa·s
same,viscosity,"293.15 K, 100 kPa, x1 = 0.9468",0.56 ± 0.05 mPa·s
same,viscosity,"303.15 K, 100 kPa, x1 = 0.0851",2.94 ± 0.24 mPa·s
same,viscosity,"303.15 K, 100 kPa, x1 = 0.1723",2.14 ± 0.17 mPa·s
same,viscosity,"303.15 K, 100 kPa, x1 = 0.2541",1.62 ± 0.13 mPa·s
same,viscosity,"303.15 K, 100 kPa, x1 = 0.3619",1.13 ± 0.09 mPa·s
same,viscosity,"303.15 K, 100 kPa, x1 = 0.4246",0.93 ± 0.08 mPa·s
same,viscosity,"303.15 K, 100 kPa, x1 = 0.5566",0.66 ± 0.05 mPa·s
same,viscosity,"303.15 K, 100 kPa, x1 = 0.6612",0.53 ± 0.04 mPa·s
same,viscosity,"303.15 K, 100 kPa, x1 = 0.7441",0.49 ± 0.04 mPa·s
same,viscosity,"303.15 K, 100 kPa, x1 = 0.8559",0.48 ± 0.04 mPa·s
same,viscosity,"303.15 K, 100 kPa, x1 = 0.9468",0.49 ± 0.04 mPa·s
same,viscosity,"313.15 K, 100 kPa, x1 = 0.0851",2.32 ± 0.19 mPa·s
same,viscosity,"313.15 K, 100 kPa, x1 = 0.1723",1.79 ± 0.14 mPa·s
same,viscosity,"313.15 K, 100 kPa, x1 = 0.2541",1.38 ± 0.11 mPa·s
same,viscosity,"313.15 K, 100 kPa, x1 = 0.3619",0.96 ± 0.08 mPa·s
same,viscosity,"313.15 K, 100 kPa, x1 = 0.4246",0.79 ± 0.06 mPa·s
same,viscosity,"313.15 K, 100 kPa, x1 = 0.5566",0.54 ± 0.04 mPa·s
same,viscosity,"313.15 K, 100 kPa, x1 = 0.6612",0.43 ± 0.04 mPa·s
same,viscosity,"313.15 K, 100 kPa, x1 = 0.7441",0.41 ± 0.03 mPa·s
same,viscosity,"313.15 K, 100 kPa, x1 = 0.8559",0.41 ± 0.03 mPa·s
same,viscosity,"313.15 K, 100 kPa, x1 = 0.9468",0.43 ± 0.04 mPa·s
same,viscosity,"323.15 K, 100 kPa, x1 = 0.0851",1.88 ± 0.15 mPa·s
same,viscosity,"323.15 K, 100 kPa, x1 = 0.1723",1.48 ± 0.12 mPa·s
same,viscosity,"323.15 K, 100 kPa, x1 = 0.2541",1.15 ± 0.09 mPa·s
same,viscosity,"323.15 K, 100 kPa, x1 = 0.3619",0.8 ± 0.07 mPa·s
same,viscosity,"323.15 K, 100 kPa, x1 = 0.4246",0.66 ± 0.05 mPa·s
same,viscosity,"323.15 K, 100 kPa, x1 = 0.5566",0.45 ± 0.04 mPa·s
same,viscosity,"323.15 K, 100 kPa, x1 = 0.6612",0.35 ± 0.03 mPa·s
same,viscosity,"323.15 K, 100 kPa, x1 = 0.7441",0.33 ± 0.03 mPa·s
same,viscosity,"323.15 K, 100 kPa, x1 = 0.8559",0.34 ± 0.03 mPa·s
same,viscosity,"323.15 K, 100 kPa, x1 = 0.9468",0.37 ± 0.03 mPa·s
CCCCCC(=O)O + c1ccccc1,viscosity,"298.15 K, 101 kPa, x1 = 0.03",0.626 ± 0.017 mPa·s
same,viscosity,"298.15 K, 101 kPa, x1 = 0.07",0.653 ± 0.017 mPa·s
same,viscosity,"298.15 K, 101 kPa, x1 = 0.11",0.684 ± 0.018 mPa·s
same,viscosity,"298.15 K, 101 kPa, x1 = 0.14",0.718 ± 0.019 mPa·s
same,viscosity,"298.15 K, 101 kPa, x1 = 0.31",0.908 ± 0.024 mPa·s
same,viscosity,"298.15 K, 101 kPa, x1 = 0.4",1.058 ± 0.028 mPa·s
same,viscosity,"298.15 K, 101 kPa, x1 = 0.5",1.284 ± 0.034 mPa·s
same,viscosity,"298.15 K, 101 kPa, x1 = 0.73",1.844 ± 0.048 mPa·s
O=C1CCCCC1 + CCCCCO,viscosity,"303.15 K, 101 kPa, x1 = 0.1012",2.388 ± 0.022 mPa·s
same,viscosity,"303.15 K, 101 kPa, x1 = 0.2586",1.983 ± 0.018 mPa·s
same,viscosity,"303.15 K, 101 kPa, x1 = 0.4201",1.737 ± 0.016 mPa·s
same,viscosity,"303.15 K, 101 kPa, x1 = 0.5809",1.622 ± 0.015 mPa·s
same,viscosity,"303.15 K, 101 kPa, x1 = 0.7407",1.565 ± 0.014 mPa·s
O=C1CCCCC1 + CCCCCC,viscosity,"298.15 K, 101 kPa, x1 = 0.0863",0.364 ± 0.028 mPa·s
same,viscosity,"298.15 K, 101 kPa, x1 = 0.2109",0.421 ± 0.032 mPa·s
same,viscosity,"298.15 K, 101 kPa, x1 = 0.3038",0.474 ± 0.035 mPa·s
same,viscosity,"298.15 K, 101 kPa, x1 = 0.4007",0.542 ± 0.038 mPa·s
same,viscosity,"298.15 K, 101 kPa, x1 = 0.463",0.598 ± 0.042 mPa·s
same,viscosity,"298.15 K, 101 kPa, x1 = 0.6023",0.773 ± 0.051 mPa·s
same,viscosity,"298.15 K, 101 kPa, x1 = 0.6701",0.833 ± 0.055 mPa·s
same,viscosity,"298.15 K, 101 kPa, x1 = 0.7991",1.185 ± 0.074 mPa·s
same,viscosity,"298.15 K, 101 kPa, x1 = 0.872",1.398 ± 0.086 mPa·s
same,viscosity,"298.15 K, 101.33 kPa, x1 = 0.1011",0.335 ± 0.003 mPa·s
same,viscosity,"298.15 K, 101.33 kPa, x1 = 0.2012",0.381 ± 0.003 mPa·s
same,viscosity,"298.15 K, 101.33 kPa, x1 = 0.3052",0.445 ± 0.003 mPa·s
same,viscosity,"298.15 K, 101.33 kPa, x1 = 0.4029",0.514 ± 0.004 mPa·s
same,viscosity,"298.15 K, 101.33 kPa, x1 = 0.5011",0.607 ± 0.004 mPa·s
same,viscosity,"298.15 K, 101.33 kPa, x1 = 0.6043",0.732 ± 0.005 mPa·s
same,viscosity,"298.15 K, 101.33 kPa, x1 = 0.7032",0.898 ± 0.006 mPa·s
same,viscosity,"298.15 K, 101.33 kPa, x1 = 0.8003",1.131 ± 0.008 mPa·s
same,viscosity,"298.15 K, 101.33 kPa, x1 = 0.8989",1.441 ± 0.012 mPa·s
same,viscosity,"303.15 K, 101.33 kPa, x1 = 0.1011",0.318 ± 0.003 mPa·s
same,viscosity,"303.15 K, 101.33 kPa, x1 = 0.2012",0.361 ± 0.003 mPa·s
same,viscosity,"303.15 K, 101.33 kPa, x1 = 0.3052",0.418 ± 0.003 mPa·s
same,viscosity,"303.15 K, 101.33 kPa, x1 = 0.4029",0.483 ± 0.004 mPa·s
same,viscosity,"303.15 K, 101.33 kPa, x1 = 0.5011",0.57 ± 0.004 mPa·s
same,viscosity,"303.15 K, 101.33 kPa, x1 = 0.6043",0.684 ± 0.005 mPa·s
same,viscosity,"303.15 K, 101.33 kPa, x1 = 0.7032",0.834 ± 0.006 mPa·s
same,viscosity,"303.15 K, 101.33 kPa, x1 = 0.8003",1.033 ± 0.007 mPa·s
same,viscosity,"303.15 K, 101.33 kPa, x1 = 0.8989",1.322 ± 0.009 mPa·s
same,viscosity,"308.15 K, 101.33 kPa, x1 = 0.1011",0.305 ± 0.003 mPa·s
same,viscosity,"308.15 K, 101.33 kPa, x1 = 0.2012",0.343 ± 0.003 mPa·s
same,viscosity,"308.15 K, 101.33 kPa, x1 = 0.3052",0.396 ± 0.003 mPa·s
same,viscosity,"308.15 K, 101.33 kPa, x1 = 0.4029",0.458 ± 0.003 mPa·s
same,viscosity,"308.15 K, 101.33 kPa, x1 = 0.5011",0.537 ± 0.004 mPa·s
same,viscosity,"308.15 K, 101.33 kPa, x1 = 0.6043",0.641 ± 0.005 mPa·s
same,viscosity,"308.15 K, 101.33 kPa, x1 = 0.7032",0.779 ± 0.005 mPa·s
same,viscosity,"308.15 K, 101.33 kPa, x1 = 0.8003",0.961 ± 0.006 mPa·s
same,viscosity,"308.15 K, 101.33 kPa, x1 = 0.8989",1.22 ± 0.008 mPa·s
